Test results taken from patent US20090047314A1, “MICROENCAPSULATION SYSTEMS AND APPLICATIONS OF SAME” (Centre National de la Recherche Scientifique (C.N.R.S.), priority 2003, published 2009).

Assay: Encapsulation of molecule in the beads (determination by HPLC)
Type: physicochemical
Settings: α-cyclodextrin/soya oil beads
Method: The procedure is carried out as described in Example 1, but using, as molecules of interest, molecules that are active in therapeutics or that can be used in cosmetics, such as pigments or dyes, vitamin E acetate, benzophenone or isotretinoin.
In addition, it was shown that 30% of vitamin E acetate is encapsulated (determination by HPLC).

CC(=O)Oc1c(C)c(C)c2c(c1C)CCC(C)(CCC[C@H](C)CCC[C@H](C)CCCC(C)C)O2 (stereo partly shown) [vitamin E acetate]
fraction of molecule encapsulated in the beads: 30%
